The values below come from patent US20240002419A1, “RADIATION-ACTIVATED TETRAVALENT PLATINUM COMPLEX AND USE THEREOF” (priority 2020, published 2024).

One data set is described as follows: Yield of reduced metal compounds under X-ray irradiation.
Conditions: not given
Format: physicochemical. The procedure:
Operation steps of test: the compound was dissolved in ultrapure water to prepare a 100 μM metal compound solution, and oxygen gas in the solution was removed by bubbling nitrogen gas for 15 minutes. […] Finally, the remaining amount of raw material was measured, the disappeared concentration of the reactant was calculated, and the radiation yield was calculated (radiation yield=disappeared concentration of reactant/radiation dose).
`O=S(=O)([O-])[O-].[Cu+2]` [Compound 13, copper sulfate]: the “Yield (radiation yield = disappeared concentration of reactant/radiation dose)” value amounted to 209 nM/Gy.

Regarding `[Cl-].[Cl-].[Mg+2]` [Compound 4, magnesium chloride], the “Yield (radiation yield = disappeared concentration of reactant/radiation dose)” value is reported as “(No metal cation reduction”.

For `O=P([O-])([O-])O.[K+].[K+]` [Compound 3, dipotassium hydrogen phosphate], the “Yield (radiation yield = disappeared concentration of reactant/radiation dose)” value is given as “(No metal cation reduction”.

The data set is the same for the next values; noted with them: 100 μM in deoxygenated ultrapure water, X-rays 0-1000 Gy, 4 Gy/min.
For `[Cl-].[K+]` [Compound 2, potassium chloride], the “Yield (radiation yield = disappeared concentration of reactant/radiation dose)” value is on record as “(No metal cation reduction”.

With `[Cl][Ni][Cl]` [Compound 10, nickel chloride], the “Yield (radiation yield = disappeared concentration of reactant/radiation dose)” value is listed as 347 nM/Gy.

Consider `[NH2][Pt]([NH2])([Cl])([Cl])([O]C(=O)CCCC[P+](c1ccccc1)(c1ccccc1)c1ccccc1)[O]C(=O)CCCC[P+](c1ccccc1)(c1ccccc1)c1ccccc1` [Compound 18], for which the “Yield (radiation yield = disappeared concentration of reactant/radiation dose)” value came out at 427 nM/Gy.

As to `C1=Cc2cc3ccc(cc4nc(cc5ccc(cc1n2)[nH]5)C=C4)[nH]3.[Fe]` [Compound 16, iron porphyrin], the “Yield (radiation yield = disappeared concentration of reactant/radiation dose)” value was found to be 598 nM/Gy.

Regarding `O=[N+]([O-])[O-].[Ag+]` [Compound 14, silver nitrate], the “Yield (radiation yield = disappeared concentration of reactant/radiation dose)” value is on record as 576 nM/Gy.

As to `[K+].[K+].[O]=[Cr](=[O])([O-])[O][Cr](=[O])(=[O])[O-]` [Compound 9, potassium dichromate], the “Yield (radiation yield = disappeared concentration of reactant/radiation dose)” value is on record as 87 nM/Gy.

Regarding `[Cl][Fe]([Cl])[Cl]` [Compound 5, ferric chloride], the “Yield (radiation yield = disappeared concentration of reactant/radiation dose)” value is recorded as 578 nM/Gy.

`[Cl-].[Na+]` [Compound 1, sodium chloride]: the “Yield (radiation yield = disappeared concentration of reactant/radiation dose)” value is “(No metal cation reduction”.

A further data set can be described thus: Radiation-driven (γ-ray) release of Pt(II) drugs from Pt(IV) complexes, UPLC-MS and NMR. Format: physicochemical. Particulars: γ-rays (60Co, 40 kGy), D2O, deoxygenated. An excerpt:
To explore the generalizability of this strategy, we further conducted the same study on two other platinum-based drugs commonly used globally, carboplatin and cisplatin.
Turning to `N.N.O=C(O)CCC(=O)[O][Pt]([Cl])([Cl])[O]C(=O)CCC(=O)O` [cisPt(IV)-(Suc)2], the “Product released after irradiation” value is “release the corresponding Pt(II) drugs”.

For the compound `[NH2][Pt]1([NH2])([O]C(=O)CCC(=O)O)([O]C(=O)CCC(=O)O)[O]C(=O)C2(CCC2)C(=O)[O]1` [carboPt(IV)-(Suc)2], the “Product released after irradiation” value was “release the corresponding Pt(II) drugs”.

Take `NC1CCCCC1N.O=C(O)CCC(=O)[O][Pt]1([O]C(=O)CCC(=O)O)[O]C(=O)C(=O)[O]1` [oxaliPt(IV)-(Suc)2]: the “Product released after irradiation” value is reported as “released product was oxaliplatin”.
